The text below walks through data of paper PMC10126245 (Frontiers in Cellular and Infection Microbiology, 2023).

One may read the IC50 as the concentration that gives 50% inhibition. A high value points to lower potency. In general, viability refers to the share of living cells, or the viability signal relative to a control. The low end stands for more harm to the cells, the high end for less harm to the cells.

Each structure is given as a SMILES string. ≈ marks a conversion by molar mass, not a printed value. Where “and” joins values, the source holds several entries; their conditions need not be identical. Identical values can stand only once. Where only a bound is given, the exact number is not on record here.

For data set [1], the system named is CHO cell line. As to the kind of experiment: cells. The settings on record: Cricetulus griseus, 24 h.
In data set [2] the test system is CFCF-induced cAMP levels in ligated-ileal loops. Details: species or system Swiss albino mice. The note with it: mouse, in vivo.
For data set [3], the target named is CT binding to GM1 receptor (Vibrio cholerae serotype O1, UniProt P01556).
Chain of CT binding to GM1 receptor (P01556 22-124 limits assumed): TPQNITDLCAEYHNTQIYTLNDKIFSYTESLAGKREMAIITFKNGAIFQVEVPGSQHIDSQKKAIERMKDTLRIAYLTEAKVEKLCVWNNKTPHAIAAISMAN
In data set [4] the test system is CT-induced cAMP levels in CHO cell line. Format: cell-based.
For data set [5], the system named is CFCF induced histopathological changes in ileal loops. Details: species or system Swiss albino mice. The note with it: mouse, in vivo.
In data set [6] the test system is CFCF-induced fluid accumulation in ligated-ileal loops. More on the design: species or system Swiss albino mice. The note with it: mouse, in vivo.
Data set [7] has as its system CT-induced cell elongation in CHO cell line. Type of data set: cell-based.
The test system of data set [8] is CHO cell line. The note with it: Chinese hamster.
Data set [9] is described as follows: in vitro. The note with it: Chinese hamster.
Data set [10] has as its system FITC-CTB binding to Vero cells. The note with it: 10µg/ml; cited from earlier work.
Data set [11] relates to CT-induced cAMP. The settings on record: 10µg/mL; cited from earlier work.
For data set [12], the system named is CT binding to GM1. The note with it: 50mM; cited from earlier work.

Turning to `O=C(/C=C/c1ccc(O)c(O)c1)O[C@@H]1C[C@](O)(C(=O)O)C[C@@H](O)[C@H]1O` [Chlorogenic acid], the half-inhibitory concentration (IC50) in data set [1] turned out to be 398 ± 5.4 mg/L (≈ 1120 µM). Moreover, the “cAMP levels in ligated-ileal tissues” value in data set [2] is 1.18% and 1.89%. Besides, in [3], the “Binding inhibition of CT to GM1” value is over 50%; the “Binding inhibition percentage (BI%)” value is 92% and 81%. Besides, in data set [4], the “Bound percent (B%) of cAMP” value is 81% and 78%. Further, the “Protection against CFCF induced histopathological changes (inflammation, edema)” value in [5] was “substantial protective activity”. In data set [6], the “Mean W/L ratio” value is 0.132 and 0.176; the “Mean weight/length (W/L) ratio of ligated-ileal loops” value (“Mean weight/length (W/L) ratio” for short) is 0.132 g/cm and 0.176 g/cm. For the same compound, in [7], the “Protection against CT-induced cell elongation” value is reported as “greater protective activities”. Moreover, in data set [8], the “NC1 (non-cytotoxic concentration)” value was 100 µg/mL, the “NC2 (non-cytotoxic concentration)” value was 50 µg/mL and the viability is recorded as 97.2%. In [9], this compound returned a viability of 90.5%.

`C[C@@H]1O[C@@H](Oc2c(-c3ccc(O)c(O)c3)oc3cc(O)cc(O)c3c2=O)[C@H](O)[C@H](O)[C@H]1O` [Quercetrin, reference compound]: in data set [1], half-maximal inhibition (IC50) required 234 ± 3.7 mg/L (≈ 521 µM). Moreover, the “Inhibition of binding of FITC-CTB to Vero cells” value in [10] is on record as 20%. Besides, in data set [11], the “Decrease in cAMP compared to CT control” value is 59%. In data set [4], the “Bound percent (B%) of cAMP” value was 66% and 47%. Moreover, in data set [8], the “NC1 (non-cytotoxic concentration)” value is 60 µg/mL, the “NC2 (non-cytotoxic concentration)” value turned out to be 30 µg/mL and the viability is on record as 96.3%. In data set [9], this compound registered a viability of 91%.

Compound `O=C(O)c1cc(O)c(O)c(O)c1` [Gallic acid, reference compound] gave an IC50 in [1] of 103 ± 1.1 mg/L (≈ 604 µM). Besides, the “cAMP levels in ligated-ileal tissues” value in [2] is 1.79% and 3.39%. Further, the “Inhibition of binding of FITC-CTB to Vero cells” value in [10] is recorded as 23%. Besides, in data set [11], the “Decrease in cAMP compared to CT control” value is given as 76%. The “Binding inhibition of CT to GM1” value in [12] is 40%. In data set [4], the “Bound percent (B%) of cAMP” value was 80% and 60%. Also, the “Protection against CFCF induced histopathological changes (inflammation, edema)” value in [5] is given as “indistinct amelioration”. Also, in [6], the “Mean W/L ratio” value is 0.222 and 0.188; the “Mean weight/length (W/L) ratio” value was 0.188 g/cm. In [8], the “NC1 (non-cytotoxic concentration)” value was 25 µg/mL, the “NC2 (non-cytotoxic concentration)” value came to 12.5 µg/mL and the viability came out at 97.9%. In [9], this compound had a viability of 93.5%.

Compound `O=c1oc2c(O)c(O)cc3c(=O)oc4c(O)c(O)cc1c4c23` [Ellagic acid] showed a concentration for half-maximal inhibition (IC50) in [1] of 116 ± 9.6 mg/L (≈ 382 µM). The “cAMP levels in ligated-ileal tissues” value in data set [2] is 0.62% and 1.31%. Further, in data set [3], the “Binding inhibition of CT to GM1” value is on record as over 50% and the “Binding inhibition percentage (BI%)” value is given as 97%. In addition, in data set [4], the “Bound percent (B%) of cAMP” value was 82% and 81%. Moreover, the “Protection against CFCF induced histopathological changes (inflammation, edema)” value in data set [5] is on record as “substantial protective activity”. In addition, in [6], the “Mean W/L ratio” value was 0.091 and 0.094; the “Mean weight/length (W/L) ratio” value is 0.091 g/cm and 0.094 g/cm. Further, the “Protection against CT-induced cell elongation” value in [7] is “greater protective activities”. In addition, in [8], the “NC1 (non-cytotoxic concentration)” value amounted to 30 µg/mL, the “NC2 (non-cytotoxic concentration)” value turned out to be 15 µg/mL and the viability was 97.5%. Further, the viability in data set [9] was 93.2%.

With `C[C@@H]1O[C@@H](OC[C@H]2O[C@@H](Oc3c(-c4ccc(O)c(O)c4)oc4cc(O)cc(O)c4c3=O)[C@H](O)[C@@H](O)[C@@H]2O)[C@H](O)[C@H](O)[C@H]1O` [Rutin], the IC50 in [1] was found to be 287 ± 6.9 mg/L (≈ 471 µM). In addition, in data set [3], the “Binding inhibition percentage (BI%)” value was 9% and 2%. The “Bound percent (B%) of cAMP” value in [4] was 53% and 44%. Besides, in data set [8], the “NC1 (non-cytotoxic concentration)” value is 70 µg/mL, the “NC2 (non-cytotoxic concentration)” value was determined as 35 µg/mL and the viability is on record as 97.6%. The viability in data set [9] stood at 92.4%.

The compound `O=C(CCc1ccc(O)cc1)c1c(O)cc(O)cc1O[C@@H]1O[C@H](CO)[C@@H](O)[C@H](O)[C@H]1O` [Phloridzin] displayed an IC50 in data set [1] of 298 ± 3.9 mg/L (≈ 683 µM). Also, in data set [3], the “Binding inhibition of CT to GM1” value is reported as over 50%. The “Bound percent (B%) of cAMP” value in data set [4] was 71% and 50%. Besides, in data set [8], the “NC1 (non-cytotoxic concentration)” value turned out to be 75 µg/mL, the “NC2 (non-cytotoxic concentration)” value amounted to 37.5 µg/mL and the viability was determined as 97.6%. In data set [9], this compound returned a viability of 94.8%.
